The text below walks through data of patent publication US12077503B2, “Substituted cyclic amides and their use as herbicides” (FMC CORPORATION, priority 2015, dated 2024).

Molecules are shown by their SMILES.

Type in all cases: in vivo
Test [1] has as its system giant foxtail (Setaria faberii). The experiment in a line: Test A postemergence. Particulars: Setaria faberi, post-emergence, 240 h, 125 g ai/ha, postemergence, visual injury rating after approximately 10 d; read-out: Foxtail, Giant plant response rating (0 to 100 scale, 0 no effect, 100 complete control). Put shortly: (§1)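 Visual injury, scored on a 0–100 scale relative to untreated controls, was recorded about 10 d after application. Treatments were a preemergence soil spray over planted seeds or a postemergence spray on plants at the one- to two-leaf stage, 2 to 10 cm tall, all in loam soil–sand blend in the greenhouse.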

The subject of test [2] is corn (Zea mays). The experiment in a line: Test A postemergence. Particulars: Zea mays, post-emergence, 240 h, 125 g ai/ha, postemergence, visual injury rating after approximately 10 d; read-out: Corn plant response rating (0 to 100 scale, 0 no effect, 100 complete control). The gist of the method: as §1
Test [3] concerns wheat (Triticum aestivum). The experiment in a line: Test A postemergence. Particulars: Triticum aestivum, post-emergence, 240 h, 125 g ai/ha, postemergence, visual injury rating after approximately 10 d; read-out: Wheat plant response rating (0 to 100 scale, 0 no effect, 100 complete control). Put shortly: as §1
In test [4] the test system is pigweed (Amaranthus retroflexus). The experiment in a line: Test A postemergence. Particulars: Amaranthus retroflexus, post-emergence, 240 h, 125 g ai/ha, postemergence, visual injury rating after approximately 10 d; read-out: Pigweed plant response rating (0 to 100 scale, 0 no effect, 100 complete control). The gist of the method: as §1
The subject of test [5] is ryegrass, Italian (Italian ryegrass, Lolium multiflorum). Put plainly: Test A postemergence. Particulars: Lolium multiflorum, post-emergence, 240 h, 125 g ai/ha, postemergence, visual injury rating after approximately 10 d; read-out: Ryegrass, Italian plant response rating (0 to 100 scale, 0 no effect, 100 complete control). The gist of the method: as §1
Test [6] concerns ragweed (common ragweed, Ambrosia elatior). Put plainly: Test A postemergence. Particulars: Ambrosia artemisiifolia, post-emergence, 240 h, 125 g ai/ha, postemergence, visual injury rating after approximately 10 d; read-out: Ragweed plant response rating (0 to 100 scale, 0 no effect, 100 complete control). The gist of the method:
as §1

The subject of test [7] is barnyardgrass (Echinochloa crus-galli). Put plainly: Test A postemergence. Particulars: Echinochloa crus-galli, post-emergence, 240 h, 125 g ai/ha, postemergence, visual injury rating after approximately 10 d; read-out: Barnyardgrass plant response rating (0 to 100 scale, 0 no effect, 100 complete control). Put shortly: as §1
Test [8] has as its system Galium (catchweed bedstraw, Galium aparine). The experiment in a line: Test A postemergence. Particulars: Galium, post-emergence, 240 h, 125 g ai/ha, postemergence, visual injury rating after approximately 10 d; read-out: Galium plant response rating (0 to 100 scale, 0 no effect, 100 complete control). The gist of the method:
as §1

For test [9], the system named is blackgrass (Alopecurus myosuroides). The experiment in a line: Test A postemergence. Particulars: Alopecurus myosuroides, post-emergence, 240 h, 125 g ai/ha, postemergence, visual injury rating after approximately 10 d; read-out: Blackgrass plant response rating (0 to 100 scale, 0 no effect, 100 complete control). Put shortly:
as §1

The test system of test [10] is giant foxtail (Setaria faberii). The experiment in a line: Test A preemergence. Particulars: Setaria faberi, pre-emergence, 240 h. Put shortly:
as §1

The test system of test [11] is Kochia (Kochia scoparia). The experiment in a line: Test A preemergence. Particulars: Bassia scoparia, pre-emergence, 240 h. Put shortly: as §1
Test [12] concerns pigweed (Amaranthus retroflexus). The experiment in a line: Test A preemergence. Particulars: Amaranthus retroflexus, pre-emergence, 240 h.
The subject of test [13] is ryegrass, Italian (Italian ryegrass, Lolium multiflorum). Put plainly: Test A preemergence. Particulars: Lolium multiflorum, pre-emergence, 240 h. Put shortly: as §1
Test [14] concerns ragweed (common ragweed, Ambrosia elatior). The experiment in a line: Test A preemergence. Particulars: Ambrosia artemisiifolia, pre-emergence, 240 h. Put shortly: as §1
For test [15], the system named is barnyardgrass (Echinochloa crus-galli). The experiment in a line: Test A preemergence. Particulars: Echinochloa crus-galli, pre-emergence, 240 h. The gist of the method: as §1

In the case of `CN1C[C@H](c2cc(F)c(C(F)(F)F)c(F)c2)[C@@H](C(=O)Nc2ccc(F)cc2F)C1=O` [Compound 901], the pest or weed control at 125 g/ha in [1] is 90%; in test [4] it was 0%; in [5], 0%; in test [6], 0%; in test [7] it was 60%; in test [8], 0%. In addition, the pest or weed control at 125 g/ha came out at 20% in test [9]; 90% in [10] (125 g ai/ha, preemergence, 0 to 100 scale where 0 is no effect and 100 is complete control, read-out: Foxtail, Giant plant response rating); 80% in test [11] (125 g ai/ha, preemergence, 0 to 100 scale where 0 is no effect and 100 is complete control, read-out: Kochia plant response rating); 30% in test [12] (125 g ai/ha, preemergence, 0 to 100 scale where 0 is no effect and 100 is complete control, read-out: Pigweed plant response rating); 20% in test [13] (125 g ai/ha, preemergence, 0 to 100 scale where 0 is no effect and 100 is complete control, read-out: Ryegrass, Italian plant response rating); 0% in test [14] (125 g ai/ha, preemergence, 0 to 100 scale where 0 is no effect and 100 is complete control, read-out: Ragweed plant response rating). In addition, in test [15] (125 g ai/ha, preemergence, 0 to 100 scale where 0 is no effect and 100 is complete control, read-out: Barnyardgrass plant response rating), the pest or weed control at 125 g/ha was 90%. Further, the plant injury at 125 g/ha amounted to 40% in test [2] and 20% in test [3]. Besides, the pest or weed control at 500 g/ha was 90% in test [10] (500 g ai/ha, Preemergence, visual injury vs untreated controls after approximately 10 d, read-out: Foxtail, Giant plant response rating (0 to 100 scale where 0 is no effect and 100 is complete control)); 80% in test [11] (500 g ai/ha, Preemergence, visual injury vs untreated controls after approximately 10 d, read-out: Kochia plant response rating (0 to 100 scale where 0 is no effect and 100 is complete control)); 60% in [12] (500 g ai/ha, Preemergence, visual injury vs untreated controls after approximately 10 d, read-out: Pigweed plant response rating (0 to 100 scale where 0 is no effect and 100 is complete control)); 50% in test [13] (500 g ai/ha, Preemergence, visual injury vs untreated controls after approximately 10 d, read-out: Ryegrass, Italian plant response rating (0 to 100 scale where 0 is no effect and 100 is complete control)); 0% in test [14] (500 g ai/ha, Preemergence, visual injury vs untreated controls after approximately 10 d, read-out: Ragweed plant response rating (0 to 100 scale where 0 is no effect and 100 is complete control)); 90% in [15] (500 g ai/ha, Preemergence, visual injury vs untreated controls after approximately 10 d, read-out: Barnyardgrass plant response rating (0 to 100 scale where 0 is no effect and 100 is complete control)).
